“And” between values parts separate entries of the source, which are not always exact repeats. Equal values may be shown once. Inconclusive results and toxic doses are left out. How the source made its calls: active means survival T/C of 150% or more; inactive means T/C below 125% in these data.
Tested on: CD2F1 mice, L1210 leukemia ip, survival T/C
Experiment: NCI In Vivo Anticancer Drug Screen. Data for tumor model L1210 Leukemia (intraperitoneal) in CD2F1 (CDF1) mice
Settings: higher = longer survival
Method in brief: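 Read-out first: treated-group measurement over vehicle-control measurement, expressed as a ratio. Animals bore a transplanted tumor line and were dosed with compound or vehicle.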

[1] = endpoint: mean survival time, dose: 12.5 mg/kg/injection, schedule: Q01DX009 (ip), vehicle: saline with Tween-80
[2] = endpoint: mean survival time, dose: 25.0 mg/kg/injection, schedule: Q01DX009 (ip), vehicle: saline with Tween-80
[3] = endpoint: mean survival time, dose: 50.0 mg/kg/injection, schedule: Q01DX009 (ip), vehicle: saline with Tween-80
[4] = endpoint: mean survival time, dose: 100.0 mg/kg/injection, schedule: Q01DX009 (ip), vehicle: saline with Tween-80
[5] = endpoint: mean survival time, dose: 200.0 mg/kg/injection, schedule: Q01DX009 (ip), vehicle: saline with Tween-80
[6] = endpoint: mean survival time, dose: 400.0 mg/kg/injection, schedule: Q01DX009 (ip), vehicle: saline with Tween-80
[7] = endpoint: mean survival time, dose: 100.0 mg/kg/injection, schedule: Q04DX003 (ip), vehicle: saline with Tween-80
[8] = endpoint: mean survival time, dose: 200.0 mg/kg/injection, schedule: Q04DX003 (ip), vehicle: saline with Tween-80
[9] = endpoint: mean survival time, dose: 400.0 mg/kg/injection, schedule: Q04DX003 (ip), vehicle: saline with Tween-80
[10] = endpoint: mean survival time, dose: 100.0 mg/kg/injection, schedule: Q01DX001 (ip), vehicle: saline with Tween-80
[11] = endpoint: mean survival time, dose: 200.0 mg/kg/injection, schedule: Q01DX001 (ip), vehicle: saline with Tween-80
[12] = endpoint: mean survival time, dose: 400.0 mg/kg/injection, schedule: Q01DX001 (ip), vehicle: saline with Tween-80
[13] = endpoint: mean survival time, dose: 6.25 mg/kg/injection, schedule: Q01DX009 (ip), vehicle: saline
[14] = endpoint: mean survival time, dose: 12.5 mg/kg/injection, schedule: Q01DX009 (ip), vehicle: saline
[15] = endpoint: mean survival time, dose: 25.0 mg/kg/injection, schedule: Q01DX009 (ip), vehicle: saline
[16] = endpoint: mean survival time, dose: 100.0 mg/kg/injection, schedule: Q04DX002 (ip), vehicle: saline with Tween-80
[17] = endpoint: mean survival time, dose: 25.0 mg/kg/injection, schedule: Q04DX002 (ip), vehicle: saline with Tween-80

Measured: T/C

COC(=O)CC(N)C(=O)O (stereo unspecified)
inactive: endpoint: median survival time, dose: 6.25 mg/kg/injection, schedule: Q01DX009 (ip), vehicle: saline 100 % of control | endpoint: median survival time, dose: 12.5 mg/kg/injection, schedule: Q01DX009 (ip), vehicle: saline 97 % of control | endpoint: median survival time, dose: 25.0 mg/kg/injection, schedule: Q01DX009 (ip), vehicle: saline 98 % of control | endpoint: median survival time, dose: 50.0 mg/kg/injection, schedule: Q01DX009 (ip), vehicle: saline 94 % of control | endpoint: median survival time, dose: 100.0 mg/kg/injection, schedule: Q01DX009 (ip), vehicle: saline 98 % of control | endpoint: median survival time, dose: 200.0 mg/kg/injection, schedule: Q01DX009 (ip), vehicle: saline 97 % of control

CSc1cc(=O)n2c3ccccc3c3ccnc1c32
inactive: endpoint: mean survival time, dose: 1.25 mg/kg/injection, schedule: Q01DX009 (ip), vehicle: saline with Tween-80 103 % of control | endpoint: mean survival time, dose: 2.5 mg/kg/injection, schedule: Q01DX009 (ip), vehicle: saline with Tween-80 95 % of control | endpoint: mean survival time, dose: 5.0 mg/kg/injection, schedule: Q01DX009 (ip), vehicle: saline with Tween-80 97 % of control | endpoint: mean survival time, dose: 10.0 mg/kg/injection, schedule: Q01DX009 (ip), vehicle: saline with Tween-80 110 % of control

C1OCN2CSCC12 (stereo unspecified)
inactive: [1] 93 % of control and 96 % of control | [2] 98 % of control and 100 % of control | [3] 98 % of control and 102 % of control | [4] 101 % of control and 103 % of control | [5] 104 % of control and 108 % of control | [6] 110 % of control

CC(c1ccccc1)C(OC(=O)c1ccc([N+](=O)[O-])cc1)c1ccccc1 (stereo unspecified)
inactive: [4] 97 % of control | [7] 98 % of control | [5] 94 % of control | [8] 94 % of control | [6] 91 % of control | [9] 98 % of control

Cn1c(-c2ccccc2N=NN2CCCCC2)nc(=N)c2ccccc21
inactive: endpoint: mean survival time, dose: 6.25 mg/kg/injection, schedule: Q01DX005 (ip), vehicle: water 95 % of control | endpoint: mean survival time, dose: 12.5 mg/kg/injection, schedule: Q01DX005 (ip), vehicle: water 95 % of control

COc1ccccc1NC(=O)Nc1cccc(Cl)c1
inactive: [4] 95 % of control | [7] 94 % of control | [5] 93 % of control | [8] 97 % of control | [6] 88 % of control | [9] 86 % of control

CC(=O)OCC(OC(C)=O)C1OC(OC2CCCCC2)C(OC(C)=O)C(OC(C)=O)C1OC(C)=O (stereo unspecified)
inactive: [10] 93 % of control | [11] 98 % of control | [12] 88 % of control

CN(/N=C/c1ccc([N+](=O)[O-])cc1)c1ccccc1
inactive: [10] 100 % of control | [11] 106 % of control | [12] 91 % of control

CC1=C(O)C(=O)[C@@H]2O[C@@H]2C1=O
inactive: endpoint: mean survival time, dose: 0.78 mg/kg/injection, schedule: Q01DX009 (ip), vehicle: saline 98 % of control and 102 % of control | endpoint: mean survival time, dose: 1.56 mg/kg/injection, schedule: Q01DX009 (ip), vehicle: saline 101 % of control and 102 % of control | endpoint: mean survival time, dose: 3.12 mg/kg/injection, schedule: Q01DX009 (ip), vehicle: saline 96 % of control and 107 % of control | [13] 98 % of control and 108 % of control | [14] 108 % of control | [15] 87 % of control

Cc1ccc([N+](=O)[O-])cc1NC(=O)NNC(=O)CNC(=O)Nc1cccc([N+](=O)[O-])c1
inactive: [4] 88 % of control | [5] 86 % of control | [6] 104 % of control

O=[N+]([O-])c1ccc2c(c1)sc1cc([N+](=O)[O-])c(Br)cc12
inactive: [16] 97 % of control | endpoint: mean survival time, dose: 200.0 mg/kg/injection, schedule: Q04DX002 (ip), vehicle: saline with Tween-80 94 % of control | endpoint: mean survival time, dose: 400.0 mg/kg/injection, schedule: Q04DX002 (ip), vehicle: saline with Tween-80 112 % of control

CN(C)CCCN=Cc1ccccc1O.CN(C)CCCN=Cc1ccccc1O.[Ni+2]
inactive: endpoint: mean survival time, dose: 6.25 mg/kg/injection, schedule: Q01DX009 (ip), vehicle: saline with Tween-80 100 % of control | [1] 101 % of control | [2] 89 % of control

CC(C)CN1CCCC(=O)C(O)CCC1 (stereo unspecified)
inactive: endpoint: mean survival time, dose: 25.0 mg/kg/injection, schedule: Q01DX009 (ip), vehicle: acetone 98 % of control | endpoint: mean survival time, dose: 50.0 mg/kg/injection, schedule: Q01DX009 (ip), vehicle: acetone 93 % of control

C/[N+]([O-])=C/C1OC(n2ccc(=O)[nH]c2=O)C2OC(C)(C)OC12 (stereo unspecified)
inactive: endpoint: median survival time, dose: 21.38 mg/kg/injection, schedule: Q01DX005 (ip), vehicle: saline 106 % of control | endpoint: median survival time, dose: 42.75 mg/kg/injection, schedule: Q01DX005 (ip), vehicle: saline 100 % of control | endpoint: median survival time, dose: 85.5 mg/kg/injection, schedule: Q01DX005 (ip), vehicle: saline 100 % of control | endpoint: median survival time, dose: 171.0 mg/kg/injection, schedule: Q01DX005 (ip), vehicle: saline 107 % of control

CN(C)c1ccc(C(O)C(N)=O)cc1 (stereo unspecified)
inactive: [13] 94 % of control | endpoint: mean survival time, dose: 6.25 mg/kg/injection, schedule: Q04DX003 (ip), vehicle: saline 102 % of control | [14] 94 % of control | endpoint: mean survival time, dose: 12.5 mg/kg/injection, schedule: Q04DX003 (ip), vehicle: saline 95 % of control | [15] 93 % of control | endpoint: mean survival time, dose: 25.0 mg/kg/injection, schedule: Q04DX003 (ip), vehicle: saline 106 % of control

CC(C)(C)CC(C)(C)c1ccc(O)cc1O
inactive: [2] 105 % of control | [3] 103 % of control | [10] 101 % of control | [4] 94 % of control

CCCC(C)CC1CCC(N)CC1 (stereo unspecified)
inactive: endpoint: mean survival time, dose: 100.0 mg/kg/injection, schedule: Q04DX002 (ip), vehicle: saline 96 % of control | endpoint: mean survival time, dose: 200.0 mg/kg/injection, schedule: Q04DX002 (ip), vehicle: saline 96 % of control

COC(=O)N/N=C\c1ccc(O)c(OC)c1
inactive: [4] 104 % of control | [5] 104 % of control | [6] 97 % of control

COC(=O)N1c2ccc(C)cc2C=CC1C#N (stereo unspecified)
inactive: [4] 95 % of control | [7] 102 % of control | [5] 100 % of control | [8] 105 % of control | [6] 95 % of control | [9] 90 % of control

c1ccc(-c2ncnc3ccccc23)cc1
inactive: [7] 103 % of control | [8] 101 % of control | [9] 97 % of control

O=C(O)CCSCCC(=O)O
inactive: endpoint: mean survival time, dose: 100.0 mg/kg/injection, schedule: Q01DX001 (ip), vehicle: saline 100 % of control | endpoint: mean survival time, dose: 200.0 mg/kg/injection, schedule: Q01DX001 (ip), vehicle: saline 105 % of control | endpoint: mean survival time, dose: 400.0 mg/kg/injection, schedule: Q01DX001 (ip), vehicle: saline 101 % of control

O=C(Nc1cc(Cl)ccc1Cl)c1ccc(C(=O)Nc2cc(Cl)ccc2Cl)cc1
inactive: [4] 94 % of control | [7] 92 % of control | [5] 95 % of control | [8] 96 % of control | [6] 94 % of control | [9] 88 % of control

OCC#CC1CCCCC1
inactive: [3] 107 % of control | [4] 107 % of control | [5] 101 % of control

IC1CCC[N-]C1.IC1CCC[N-]C1.[Cl][Pt+2][Cl] (stereo unspecified)
inactive: endpoint: mean survival time, dose: 50.0 mg/kg/injection, schedule: Q01DX001 (ip), vehicle: saline with Tween-80 95 % of control | [10] 93 % of control | [11] 95 % of control

NC(CSS(=O)(=O)O)=NCCc1cccs1
inactive: endpoint: mean survival time, dose: 12.5 mg/kg/injection, schedule: Q04DX002 (ip), vehicle: saline with Tween-80 97 % of control | [17] 105 % of control

CCC1=C/C(=C\c2ccc3c(c2)OCO3)C(=O)S1
inactive: [17] 93 % of control | endpoint: mean survival time, dose: 50.0 mg/kg/injection, schedule: Q04DX002 (ip), vehicle: saline with Tween-80 89 % of control | [16] 93 % of control

— PubChem BioAssay AID256 (DTP/NCI, 2004)
